14 compounds from patent publication US20250108036A1, “COMPOSITIONS FOR REMOVING SENESCENT CELLS AND USES THEREOF” (LIFECEUTIX CO., LTD., priority 2021, published 2025) can be followed below.

Type in all cases: cell-based, human
The subject of assay [1] is foreskin cells in which senescence was induced by doxorubicin. Put plainly: CellTiter-Glo cell viability of doxorubicin-induced senescent foreskin cells (Examples 1-2, 10, 11, 13; Tables 4, 63, 65). The settings on record: Homo sapiens, 72 h, read-out: Survival (%); for viability at 10 µM: 10 μM test compound; for viability at 30 µM: 30 μM test compound; for viability at […]: […] test compound; for viability at 90 µM: 90 μM test compound. Background: In ATP-based viability assays light output follows the ATP content of the culture.
Method: After 3 days, cell viability was measured using CellTiter-Glo Luminescent Cell Viability Assay (Promega) or light microscopy.

Assay [2] deals with HMGN1. Put plainly: HMGN1 ELISA in culture medium of foreskin cells (Examples 10, 11; Tables 62, 63, 64). Conditions: Homo sapiens; for activity at 30 µM: read-out: HMGN1. On the technique in general: ELISA stands for enzyme-linked immunosorbent assay.
The test system of assay [3] is HMGN1. Put plainly: HMGN1 ELISA in culture medium of A549 cancer cells (Example 12, Table 66). The settings on record: Homo sapiens.
The subject of a further assay is A549. Put plainly: CellTiter-Glo cell viability of senescent A549 cancer cells (Example 12, Table 67). Conditions: Homo sapiens; for viability at 10 µM: 10 μM test compound; for viability at 30 µM: 30 μM test compound; for viability at 90 µM: 90 μM test compound.
Where [4] appears, read: 1.1 μM test compound, doxorubicin-induced senescent foreskin cells, CellTiter-Glo, 0 μM = 100.
[5] abbreviates: doxorubicin-induced senescent foreskin cells, CellTiter-Glo, 0 μM = 100.
[6] abbreviates: 30 μM test compound, doxorubicin-treated foreskin cells, DMSO = 100.
[7] abbreviates: A549, doxorubicin-induced senescent A549 cells, test compound 30 μM, ELISA, DMSO = 100, read-out: HMGN1 (amount of HMGN1 secreted in the cell culture).
Where [8] appears, read: A549, doxorubicin-induced senescent A549 cancer cells, 1.1 μM test compound, CellTiter-Glo, read-out: Survival (%).
The mark [9] stands for this setting: A549, doxorubicin-induced senescent A549 cancer cells, CellTiter-Glo, read-out: Survival (%).

Each structure is given as a SMILES string. Like-named read-outs stand apart in the source and are kept apart here.

For `COc1cc2nccc(Oc3ccc(NC(=O)NC4CC4)c(Cl)c3)c2cc1C(N)=O` [LX-2803, Lenvatinib, reference compound], the viability at 1.1 µM in assay [1] (setting [4]) came to 62%; with A549 (setting [8]), 91.2%. Further, the viability at 10 µM in assay [1] (setting [5]) was found to be 11.5%; with A549 (setting [9]) it was 84.9%. The viability at 30 µM in assay [1] (setting [5]) was 3.6%; with A549 (setting [9]) it was 54.4%. The viability at […] in assay [1] (setting [5]) worked out at 43.9%. Also, the values for the activity at 30 µM in the assay on HMGN1 [2] (setting [6]) and in the assay with HMGN1 [3] (setting [7]) were 282% and 195%, respectively.

As to `CONC(=O)[C@]12CCC(C)(C)C[C@H]1[C@H]1C(=O)C=C3[C@@]4(C)C=C(C#N)C(=O)C(C)(C)[C@@H]4CC[C@@]3(C)[C@]1(C)CC2` [LX-2310], the values for the viability at 1.1 µM (in assay [1] (setting [4]); with A549 (setting [8])) were 53.7% and 100%, respectively. For the same compound, the viability at […] in assay [1] (setting [5]) came out at 6.9%. Besides, the activity at 30 µM with HMGN1 [2] (setting [6]) came out at 315%; in the assay with HMGN1 [3] (setting [7]), 319%. The viability at 10 µM with A549 (setting [9]) stood at 3.5%.

Take `CC(=O)N[C@@H](Cc1c[nH]c2ccccc12)C(=O)N[C@@H](CCC(=O)C=[N+]=[N-])C(=O)OC(C)C` [LX-3201, Sirpiglenastat, reference compound]: the values for the viability at 1.1 µM (in assay [1] (setting [4]); with A549 (setting [8])) were 99.3% and 96.5%, respectively. Moreover, the results for the viability at 10 µM (in assay [1] (setting [5]); in the assay on A549 (setting [9])) were 20.1% and 68.1%, respectively. Besides, in assay [1] (setting [5]), the viability at […] came out at 91.9%. The activity at 30 µM in the assay with HMGN1 [2] (setting [6]) amounted to 286%; in the assay with HMGN1 [3] (setting [7]), 309%. Further, in the assay on A549 (setting [9]), the viability at 30 µM stood at 12.8%.

As for `C=CC(=O)Nc1cccc(Oc2nc(Nc3ccc(N4CCN(C)CC4)cc3)nc3ccoc23)c1` [LX-2902, Poseltinib, reference compound], the viability at 1.1 µM in assay [1] (setting [4]) turned out to be 1.9%; in the assay with A549 (setting [8]), 95.7%. For the same compound, the values for the activity at 30 µM in the assay on HMGN1 [2] (setting [6]) and in the assay on HMGN1 [3] (setting [7]) were 297% and 271%, respectively. The viability at 10 µM with A549 (setting [9]) was found to be 72.4%. Also, the viability at 30 µM in the assay on A549 (setting [9]) was 31.2%.

As to `C[C@@H]1C(=O)[C@]2(C#N)O[C@@H]2[C@]2(C)C3=CC(=O)[C@@H]4[C@@H]5CC(C)(C)CC[C@]5(NC(=O)C(C)(F)F)CC[C@@]4(C)[C@]3(C)CC[C@@H]12` [LX-2319], the viability at 1.1 µM in assay [1] (setting [4]) turned out to be 52.9%; in the assay with A549 (setting [8]), 96.5%. Moreover, the viability at […] in assay [1] (setting [5]) was determined as 21.9%. Besides, the activity at 30 µM with HMGN1 [2] (setting [6]) is 241%; in the assay on HMGN1 [3] (setting [7]) it was 310%. The viability at 10 µM in the assay on A549 (setting [9]) was 21.3%.

As for `CCCCC/C=C\C/C=C\C/C=C\CCCCCCC(=O)O` [LX-2705, Dihomogamma-linolenic acid], in assay [1] (setting [4]), the viability at 1.1 µM came to 102%. In assay [1] (setting [5]), the viability at 10 µM turned out to be 72.1%, the viability at 30 µM came out at 45.5%, the viability at 90 µM is 31.7% and the viability at […] came out at 102%. The activity at 90 µM in the assay with HMGN1 [2] (90 μM test compound, doxorubicin-treated foreskin cells, DMSO = 100) turned out to be 202%. Further, the activity at 90 µM in the assay on HMGN1 [3] (A549, doxorubicin-induced senescent A549 cells, test compound 90 μM, ELISA, DMSO = 100, read-out: HMGN1 (amount of HMGN1 secreted in the cell culture)) was found to be 160%. The viability at 1.1 µM in the assay with A549 (setting [8]) turned out to be 101%. In the assay with A549 (setting [9]), the viability at 10 µM was found to be 96.8%, the viability at 30 µM is 100% and the viability at 90 µM came out at 61.2%.

In the case of `CCCCS(=N)(=O)CCC(N)C(=O)O` (stereo not drawn) [LX-2805, Buthionine sulfoximine], the viability at 1.1 µM was 99.4% in assay [1] (setting [4]) and 105% in the assay on A549 (setting [8]). Also, the viability at 10 µM in assay [1] (setting [5]) amounted to 92%; in the assay with A549 (setting [9]) it was 96.7%. For the same compound, the viability at 30 µM amounted to 84.2% in assay [1] (setting [5]) and 82.9% with A549 (setting [9]). Further, the viability at 90 µM in assay [1] (setting [5]) turned out to be 82%; with A549 (setting [9]) it was 73.3%. Moreover, the viability at 270 µM in assay [1] (270 μM test compound, doxorubicin-induced senescent foreskin cells, CellTiter-Glo, 0 μM = 100) was 51.1%; with A549 (A549, doxorubicin-induced senescent A549 cancer cells, 270 μM test compound, CellTiter-Glo, read-out: Survival (%)) it was 49.3%. Moreover, the viability at […] in assay [1] (setting [5]) turned out to be 97.3%. Also, the activity at 270 µM in the assay on HMGN1 [2] (270 μM test compound, doxorubicin-treated foreskin cells, DMSO = 100) came out at 182%; in the assay with HMGN1 [3] (A549, doxorubicin-induced senescent A549 cells, test compound 270 μM, ELISA, DMSO = 100, read-out: HMGN1 (amount of HMGN1 secreted in the cell culture)) it was 158%.

As to `COC(=O)[C@]12CCC(C)(C)C[C@H]1[C@H]1C(=O)C=C3[C@@]4(C)C=C(C#N)C(=O)[C@@H](C)[C@@H]4CC[C@@]3(C)[C@]1(C)CC2` [LX-2316], the viability at 1.1 µM in assay [1] (setting [4]) amounted to 36.6%; in the assay with A549 (setting [8]), 106%. In assay [1] (setting [5]), the viability at […] is 0.9%. The activity at 30 µM in the assay on HMGN1 [2] (setting [6]) worked out at 274%; with HMGN1 [3] (setting [7]), 263%. The viability at 10 µM in the assay on A549 (setting [9]) was 25.4%.

Consider `Cc1noc([C@]23CCC(C)(C)C[C@H]2[C@H]2C(=O)C=C4[C@@]5(C)C=C(C#N)C(=O)C(C)(C)[C@@H]5CC[C@@]4(C)[C@]2(C)CC3)n1` [LX-2401], for which the viability at 1.1 µM came to 46.4% in assay [1] (setting [4]) and 108% with A549 (setting [8]). The viability at […] in assay [1] (setting [5]) was 6.8%. For the same compound, the values for the activity at 30 µM with HMGN1 [2] (setting [6]) and in the assay on HMGN1 [3] (setting [7]) were 303% and 284%, respectively. The viability at 10 µM with A549 (setting [9]) worked out at 15.9%.

Consider `C#CCOc1ccc2[nH]c3c(c2c1)C[C@H](C(=O)OC)N(C(=O)CCl)[C@H]3c1ccc(C(=O)NC23CC4CC(CC(C4)C2)C3)cc1` [LX-415], for which the viability at 1.1 µM stood at 0.4% in assay [1] (setting [4]) and 15.6% in the assay on A549 (setting [8]). The figures for the activity at 30 µM in the assay with HMGN1 [2] (setting [6]) and in the assay on HMGN1 [3] (setting [7]) were 295% and 297%, respectively.

Consider `Cc1onc(C(=O)N2CCN(C(c3ccc(Cl)cc3)c3ccc(OCc4cn(CCNc5cccc6c5C(=O)N(C5CCC(=O)NC5=O)C6=O)nn4)cc3)CC2)c1[N+](=O)[O-]` (stereo not drawn) [LX-437, 4-((2-(4-((4-((4-chlorophenyl)(4-(5-methyl-4-nitroisooxazol-3-carbonyl)piperazin-1-yl)methyl)phenoxy)methyl)-1H-1,2,3-triazol-1-yl)ethyl)amino)-2-(2,6-dioxopiperidin-3-yl)isoindolin-1,3-dione], for which the viability at 1.1 µM in assay [1] (setting [4]) was 86.2%; in the assay on A549 (setting [8]), 93.6%. Also, the viability at […] in assay [1] (setting [5]) stood at 10.9%. Also, the activity at 30 µM was determined as 309% in the assay on HMGN1 [2] (setting [6]) and 301% with HMGN1 [3] (setting [7]).

Regarding `CCCCCCCCCCCCCCCC[P+](c1ccccc1)(c1ccccc1)c1ccccc1` [LX-1201, Hexadecyltriphenylphosphonium], the viability at 1.1 µM in assay [1] is 23%; in the assay with A549 (A549, read-out: Survival (%)) it was 47.3%. In addition, the activity at 30 µM in the assay with HMGN1 [2] was 311%; with HMGN1 [3] (A549, read-out: HMGN1 (amount of HMGN1 secreted in the cell culture)), 289%.

As to `COC(=O)[C@]12CCC(C)(C)C[C@H]1[C@H]1C(=O)C=C3[C@@]4(C)C=C(C#N)C(=O)C(C)(C)[C@@H]4CC[C@@]3(C)[C@]1(C)CC2` [LX-2102, Bardoxolone methyl, reference compound], the figures for the viability at 1.1 µM (in assay [1] (setting [4]); in the assay on A549 (setting [8])) were 9.4% and 88.4%, respectively. In addition, the values for the activity at 30 µM in the assay on HMGN1 [2] (setting [6]) and in the assay on HMGN1 [3] (setting [7]) were 288% and 233%, respectively.

`Cc1onc(C(=O)N2CCN(C(c3ccc(Cl)cc3)c3ccc(OCc4cn(CCOCCNc5cccc6c5C(=O)N(C5CCC(=O)NC5=O)C6=O)nn4)cc3)CC2)c1[N+](=O)[O-]` (stereo not drawn) [LX-431, 4-((2-(2-(4-((4-((4-chlorophenyl)(4-(5-methyl-4-nitroisooxazol-3-carbonyl)piperazin-1-yl)methyl)phenoxy)methyl)-1H-1,2,3-triazol-1-yl)ethoxy)ethyl)amino)-2-(2,6-dioxopiperidin-3-yl)isoindolin-1,3-dione]: the viability at 1.1 µM in assay [1] (setting [4]) was determined as 89.5%; with A549 (setting [8]), 94.6%. Moreover, in assay [1] (setting [5]), the viability at […] is 12.6%. Besides, the activity at 30 µM in the assay with HMGN1 [2] (setting [6]) came to 312%; in the assay on HMGN1 [3] (setting [7]), 283%.
